# Numbered stars: 1 amine (or outer) side, 2 acyl side, 3 side chain; on linkers, the order of the positions; unused ones are H or OH. Square brackets hold non-standard residues; d marks the D form. Peptide text beside a SMILES is read from it. * marks the point of attachment. X1 = CC(=O)O[C@]1(C(C)=O)CC[C@H]2[C@@H]3CCC4=CC(=O)CCC4=C3[C@@H](c3ccc(*)cc3)C[C@@]21C; Exatecan = CC[C@@]1(O)C(=O)OCc2c1cc1n(c2=O)Cc2c-1nc1cc(F)c(C)c3c1c2[C@@H](N*)CC3; NHCH2OCH2CO = O=C(COCN[*:1])[*:2]; Sar = CNCC(=O)O
# Legend:
# 22Rv1 cells = test: Cell viability assay (CellTiterGlo); conditions: Homo sapiens, 22Rv1, 144 h, read-out: 22RV1 (IC50, nM)
# Experimental: Cell viability assay: LNCap, 22Rv1, MCF7, MDAMB361, T47D, and IEC6 cells were seeded at a density of 500-2000 cells/well in 96 well plates, and a ‘T0’ (timepoint 0) was included along with the assay plate. The plates were then incubated at 37° C., 5% CO2 in a cell culture incubator overnight. On the next day, the ‘T0’ plate was assayed using CellTiterGlo (Promega, Inc) according to the manufacturer's instructions. The appropriate compounds were diluted in DMSO and added to the assay plate (final DMSO concentration of 0.1-0.2%) on the next day. The assay plates were incubated for 6 days at 37° C., 5% CO2. After the incubation period, the plates were assayed using CellTiterGlo (Promega, Inc) according to the manufacturer's instructions and luminescence was read on the En Vision plate reader. […] GraphPadPrism was used to analyze the data and determine GI50/IC50 values.
# [1] = target: T1, Progesterone PR-B receptors from human breast carcinoma T47D cells (Homo sapiens, UniProt P06401); test: PR binding assay ([3H] Progesterone displacement)
# T1 sequence (P06401 1-933): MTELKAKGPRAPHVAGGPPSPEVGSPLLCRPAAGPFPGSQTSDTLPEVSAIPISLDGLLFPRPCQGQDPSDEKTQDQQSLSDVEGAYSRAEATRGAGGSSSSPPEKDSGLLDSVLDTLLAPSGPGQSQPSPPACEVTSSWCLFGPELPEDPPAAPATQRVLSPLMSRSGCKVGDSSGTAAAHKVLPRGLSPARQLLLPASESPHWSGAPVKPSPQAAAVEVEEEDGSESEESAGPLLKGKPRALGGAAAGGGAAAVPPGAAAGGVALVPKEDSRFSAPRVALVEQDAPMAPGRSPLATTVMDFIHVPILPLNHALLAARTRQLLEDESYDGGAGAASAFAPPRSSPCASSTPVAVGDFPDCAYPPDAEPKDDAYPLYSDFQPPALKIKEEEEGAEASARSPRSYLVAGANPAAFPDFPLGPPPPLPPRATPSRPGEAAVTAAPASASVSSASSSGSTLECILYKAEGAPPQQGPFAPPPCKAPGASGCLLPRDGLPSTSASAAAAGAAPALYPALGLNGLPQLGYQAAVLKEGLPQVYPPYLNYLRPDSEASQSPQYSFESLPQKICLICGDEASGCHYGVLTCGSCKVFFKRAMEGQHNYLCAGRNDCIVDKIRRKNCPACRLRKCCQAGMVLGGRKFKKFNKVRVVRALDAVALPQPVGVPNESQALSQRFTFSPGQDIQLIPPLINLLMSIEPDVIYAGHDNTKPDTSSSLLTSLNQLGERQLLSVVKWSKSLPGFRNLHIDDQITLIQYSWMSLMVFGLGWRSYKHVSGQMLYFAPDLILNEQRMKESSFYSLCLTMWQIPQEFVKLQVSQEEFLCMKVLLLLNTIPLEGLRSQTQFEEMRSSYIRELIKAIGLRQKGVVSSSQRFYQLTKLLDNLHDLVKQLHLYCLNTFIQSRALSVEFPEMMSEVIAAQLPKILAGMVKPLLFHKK
# [2] = target: T2, AR (cytosol from LnCaP cells) (Homo sapiens, UniProt P10275, T878A); test: AR binding assay (3H-R1881 displacement)
# T2 sequence (P10275 1-920 T878A): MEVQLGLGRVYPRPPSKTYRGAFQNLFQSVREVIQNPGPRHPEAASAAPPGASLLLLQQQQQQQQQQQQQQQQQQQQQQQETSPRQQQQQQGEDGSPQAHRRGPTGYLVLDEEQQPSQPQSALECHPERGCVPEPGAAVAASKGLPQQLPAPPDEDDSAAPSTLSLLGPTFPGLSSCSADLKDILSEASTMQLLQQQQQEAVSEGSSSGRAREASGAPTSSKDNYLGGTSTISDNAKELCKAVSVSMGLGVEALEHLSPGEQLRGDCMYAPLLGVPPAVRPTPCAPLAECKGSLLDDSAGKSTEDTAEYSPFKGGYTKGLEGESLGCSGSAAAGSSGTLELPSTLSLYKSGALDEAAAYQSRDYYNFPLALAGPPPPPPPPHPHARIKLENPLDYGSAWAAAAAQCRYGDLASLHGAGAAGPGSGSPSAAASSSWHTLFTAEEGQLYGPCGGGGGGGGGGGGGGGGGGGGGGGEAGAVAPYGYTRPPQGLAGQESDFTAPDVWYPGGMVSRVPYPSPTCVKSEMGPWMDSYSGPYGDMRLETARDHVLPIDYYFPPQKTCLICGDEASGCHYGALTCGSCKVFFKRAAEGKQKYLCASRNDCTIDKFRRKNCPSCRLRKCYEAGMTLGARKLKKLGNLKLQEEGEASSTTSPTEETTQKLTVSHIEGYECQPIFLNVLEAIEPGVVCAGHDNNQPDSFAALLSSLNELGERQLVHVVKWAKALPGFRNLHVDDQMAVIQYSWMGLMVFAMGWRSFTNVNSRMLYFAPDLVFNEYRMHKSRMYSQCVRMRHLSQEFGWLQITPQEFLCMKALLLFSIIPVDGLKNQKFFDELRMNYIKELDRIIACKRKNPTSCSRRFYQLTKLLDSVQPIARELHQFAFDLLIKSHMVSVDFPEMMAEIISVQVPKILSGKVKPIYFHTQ
# Experimental: The plate was then centrifuged at 3000 rpm for 30 minutes at 4° C.
# [3] = target: T3, Progesterone Receptor (PR)-LBD and coactivator peptide (Homo sapiens, UniProt P06401); test: PR coactivator antagonist assay; conditions: 2.5 nM PR-LBD, 10 nM progesterone-induced fluorescence response
# T3 sequence (P06401 679-913 limits assumed): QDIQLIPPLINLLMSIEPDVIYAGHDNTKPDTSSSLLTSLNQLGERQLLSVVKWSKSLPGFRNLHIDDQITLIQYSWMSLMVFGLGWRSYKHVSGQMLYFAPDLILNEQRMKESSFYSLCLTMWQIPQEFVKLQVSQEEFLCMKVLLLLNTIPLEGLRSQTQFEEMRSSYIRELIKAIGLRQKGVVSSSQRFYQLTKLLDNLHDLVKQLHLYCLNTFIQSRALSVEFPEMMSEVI
# T47D cells = test: Cell viability assay (CellTiterGlo); format: cell-based; conditions: Homo sapiens, 144 h, read-out: T47D (IC50, nM)
compound,measurement,setting,value
"CC[C@@]1(O)C(=O)OCc2c1cc1n(c2=O)Cc2c-1nc1cc(F)c(C)c3c1c2[C@@H](NC(=O)COCNC(=O)CNC(=O)[C@H](Cc1ccccc1)NC(=O)CNC(=O)CN(C)c1ccc([C@H]2C[C@@]4(C)[C@@H](CC[C@]4(OC(C)=O)C(C)=O)[C@@H]4CCC5=CC(=O)CCC5=C42)cc1)CC3 [Compound 34, (8S,11R,13S,14S,17R)-17-Acetyl-11-(4-(((S)-10-benzyl-1-(((1S,9S)-9-ethyl-5-fluoro-9-hydroxy-4-methyl-10,13-dioxo-2,3,9,10,13,15-hexahydro-1H,12H-benzo[de]pyrano[3′,4′:6,7]indolizino[1,2-b]quinolin-1-yl)amino)-1,6,9, 12,15-pentaoxo-3-oxa-5,8,11,14-tetraazahexadecan-16-yl)(methyl)amino)phenyl)-13-methyl-3-oxo-2,3,6,7,8,11,12,13,14,15,16,17-dodecahydro-1H-cyclopenta[a]phenanthren-17-yl Acetate] (X1-[Sar]GFG[NHCH2OCH2CO]-Exatecan)",IC50,22Rv1 cells,101 to 1000 nM
same,IC50,[1],< 10 nM
same,IC50,[2],10 to 100 nM
same,PR antagonism,[3],a (IC50 =< 10 nM)
same,IC50,T47D cells,101 to 1000 nM

# Source: US20260102501A1, “ANTI-CANCER NUCLEAR HORMONE RECEPTOR-TARGETING COMPOUNDS” (Nuvation Bio Inc., priority 2022, published 2026)
